ChEMBL document CHEMBL1135215, “Synthesis and cytotoxicity of 3,4-diaryl-2(5H)-furanones” (2002)

Legend:
[1] = test system: Cancer cell lines; assay: Average cytotoxic activity (AC) in three cancer cell lines A549, SK-MEL-2 and MCF-7 was calculated; type: functional, Homo sapiens; set-up: unit not given beside the values
[2] = test system: A549; assay: Cytotoxic activity against human lung cancer A549 cell line was determined; type: functional; conditions: read-out: ED50 (the source's name)
[3] = test system: SK-MEL-2; assay: Cytotoxic activity against human melanoma SK-MEL-2 was determined; type: functional; conditions: read-out: ED50 (the source's name)
[4] = test system: MCF7; assay: Cytotoxic activity against human breast cancer MCF-7 cell line was determined; type: functional; conditions: read-out: ED50 (the source's name)

COc1cc(-n2c(-c3ccc4c(c3)OCO4)coc2=O)cc(OC)c1OC
AC [1]: 64.5 | EC50 [2]: 64.5 nM | EC50 [3]: 64.5 nM | EC50 [4]: 64.5 nM

COc1ccc(C2=C(c3cc(OC)c(OC)c(OC)c3)C(=O)OC2)cc1O
AC [1]: 12.6 | EC50 [2]: 16.3 nM | EC50 [3]: 10.2 nM | EC50 [4]: 11.4 nM

COc1cc(C2=C(c3ccc(N)cc3)COC2=O)cc(OC)c1OC
AC [1]: 45.7 | EC50 [2]: 54.7 nM | EC50 [3]: 49.3 nM | EC50 [4]: 33 nM

COc1cc(C2=C(c3ccc4c(c3)OCO4)COC2=O)cc(OC)c1OC
AC [1]: 83.8 | EC50 [2]: 100 nM | EC50 [3]: 70.8 nM | EC50 [4]: 80.4 nM

COc1ccccc1C1=C(c2cc(OC)c(OC)c(OC)c2)C(=O)OC1
AC [1]: >5000 | EC50 [2]: > 5000 nM | EC50 [3]: > 5000 nM | EC50 [4]: > 5000 nM

COc1cc([C@@H]2c3cc4c(cc3C[C@H]3COC(=O)[C@@H]32)OCO4)cc(OC)c1OC [DESOXYPODOPHYLLOTOXIN]
AC [1]: 11.9 | EC50 [2]: 15.5 nM | EC50 [3]: 8.4 nM | EC50 [4]: 11.7 nM
